Data from patent US20020193369A1, “Antifungal compounds and uses therefor” (priority 2000, published 2002).
Values after ≈ are worked out from the molar mass of the structure shown. Like-named read-outs stand apart in the source and are kept apart here. Marks after values point to notes of the source that are not given here. Values belong to the molecule of their own block, whether it stands above or below them.

Key:
[1] = cited from earlier work
[2] = system: C. albicans strain ATCC 90028; assay: Fold reduction of live cells after 24 hr incubation with combinations of azoles and potentiators; format: cell-based, Candida albicans
Method: (§1) Eleven structural analogs of INF 801 and fourteen analogs of INF 802 were purchased from ChemBridge, Maybridge and Aldrich and tested for activity. […] The numbers presented in these two tables indicate the -fold reduction in the number of live cells after 24 hour incubation with the combinations of azoles and potentiators. The higher the number, the higher the fungicidal activity of the combination. Note that concentrations of drags are somewhat different in the two tables, so the comparison between the two tables is not meaningful. [table] [table]

C. albicans [3] = assay: Fungicidal synergy with fluconazole against C. albicans (active concentration of leads and analogs); format: cell-based, Candida albicans; settings: for activity (concentration synergizing with fluconazole to a fungicidal effect): fluconazole 32 μg/ml; for concentration at which fungicidal activity is observed: combined with high concentrations of fluconazole (16 μg/ml and more)
Method: In summary, the performed screens of the chemical library identified a number of interesting potentiators of azole activity. Of these potentiators the inventors chose for further development two lead compounds, INF 801 and INF 802. […] Unlike compound INF 799, which is active at very low concentration (2 ng/ml, see above), INF 801 and INF 802 need to be present at relatively high concentrations to be active. When combined with high concentrations of fluconazole (16 μg/ml and more), their fungicidal activity is observed at 1.25 or 2.5 μg/ml, respectively. At concentrations of the azole that are clinically relevant (4 μg/ml), they are active only at ˜5-10 μg/ml.
as §1, with “meaningful.” for “meaningful. [table] [table]”

[4] = system: Candida krusei Strain M13C4; assay: MIC of fluconazole for Candida krusei with lead compounds; format: cell-based; settings: for MIC of fluconazole: Fluconazole + lead compound
C. albicans isolates = settings: cited from earlier work
C. albicans [5] = assay: Time-kill experiments in liquid culture of C. albicans; format: cell-based, Candida albicans; settings: for effect on growth of the yeast, compound alone: 10 μg/ml, no fluconazole; for colonies from plating of a milliliter of culture: combination with fluconazole, culture initially 3000 CFU/ml; for drop in number of live cells after 24 hours, combination with fluconazole / drop in number of live cells after 48 hours, combination with fluconazole: fluconazole 32 μg/ml + compound 10 μg/ml
C. albicans [6] = assay: Paper disk zones of inhibition on YPD agar plates inoculated with C. albicans; format: cell-based, Candida albicans; settings: for zone of inhibition, combination with fluconazole: disk with fluconazole 1 mg/ml + compound 2.5 mg/ml
[7] = system: Candida krusei Strain M13C4; settings: cited from earlier work
[8] = system: Candida krusei Strain M13C4; assay: Killing of Candida krusei by fluconazole combinations (CFU/ml after 24 hours); format: cell-based; settings: for CFU/ml after 24 hours incubation: inoculated at 6000 CFU/ml; for effect in combination with fluconazole on C. kruzei: fluconazole at concentration exceeding its MIC; for effect of compound alone on C. kruzei: not shown
[9] = system: C. albicans isolates (sensitive; isolate #4 over expressing MDR1); assay: microbe, parasite or virus in culture; format: cell-based; settings: Candida albicans
[10] = system: sterol composition of C. Albicans; assay: TLC analysis of sterols of C. albicans; format: cell-based, Candida albicans; settings: 24 hours
C. albicans [11] = assay: Growth of C. albicans in liquid culture with compound alone (without fluconazole); format: cell-based, Candida albicans
Solubility limit = format: physicochemical; settings: liquid culture of C. albicans
[12] = compound at 10 μg/ml, inoculum 7600 CFU/ml
[13] = disk soaked in fluconazole 1 mg/ml or compound 2.5 mg/ml in DMSO
[14] = fluconazole 128 μg/ml + compound 20 μg/ml
[15] = compound at 5 μg/ml, inoculum 8000 CFU/ml

SMILES: Clc1ccccc1C(c1ccccc1)(c1ccccc1)n1ccnc1 [Clotrimazole]
absorption after application to the skin ([1]; in vivo): less than 0.5%
absorption from the vagina ([1]; in vivo): 3-10%

SMILES: OCC(O)Cn1c2ccc(Br)cc2c2cc(Br)ccc21 (stereo not shown) [Compound S243213]
fold reduction of the concentration of live cells, + Fluconazole, 16 μg/ml [2, 12]: 6.9 fold
fold reduction of the concentration of live cells, + Itraconazole, 0.5 μg/ml [2, 12]: 6.3 fold
fold reduction of the concentration of live cells, + Ketaconazole, 0.5 μg/ml [2, 12]: 7.8 fold
activity (concentration synergizing with fluconazole to a fungicidal effect) (C. albicans [3]): 0.6 µg/mL

SMILES: OC(CN1CCC(/C=C/C2=CC=CCC2)CC1)Cn1c2ccccc2c2ccccc21 (stereo not shown) [DV 236683]
activity (concentration synergizing with fluconazole to a fungicidal effect) (C. albicans [3]): 5 µg/mL

SMILES: OC(CN1CCC(/C=C/C2=CC=CCC2)CC1)Cn1c2ccc(Cl)cc2c2cc(Cl)ccc21 (stereo not shown) [DV 236687]
activity (concentration synergizing with fluconazole to a fungicidal effect) (C. albicans [3]): 10 µg/mL

SMILES: OCC(O)Cn1c2ccc(Cl)cc2c2cc(Cl)ccc21 (stereo not shown) [DV 236818]
activity (concentration synergizing with fluconazole to a fungicidal effect) (C. albicans [3]): 5 µg/mL

SMILES: Clc1ccc(COC(Cn2ccnc2)c2ccc(Cl)cc2Cl)cc1 (stereo not shown) [Econazole]
fraction absorbed into the blood ([1]; in vivo): Less than 1%

SMILES: OC(Cn1cncn1)(Cn1cncn1)c1ccc(F)cc1F [Fluconazole, reference compound]
MIC ([4]; Pichia kudriavzevii, STRAINM13C4, Fluconazole alone): 64 µg/mL
MIC of fluconazole after 48 hours (C. albicans isolates; many isolates): exceeds 64 μg/ml
MIC of fluconazole after 24 hours of incubation (C. albicans isolates; most isolates): < 4 µg/mL
change in number of CFUs after 48 hours, fluconazole alone (C. albicans [5]; fluconazole 32 μg/ml, 48 hours): four orders of magnitude
absorption from the GI tract ([1]; in vivo): almost completely absorbed
zone of inhibition, single agent (C. albicans [6]): pronounced zone of growth inhibition
MIC of fluconazole for C. kruzei (general range) [7]: 8 to 128 µg/mL
effect of fluconazole alone on C. kruzei ([8]; 128 μg/ml): strongly fungistatic
CFU/ml after 24 hours incubation ([8]; fluconazole 128 μg/ml alone): 6230 CFU/ml
MIC80 ([9]; read-out: MIC80 of fluconazole in sensitive isolates): 0.5 to 1 µg/mL (≈ 1.63 to 3.27 µM)
MIC ([9]; read-out: MIC of fluconazole, isolate #4): 8 µg/mL
effect of fluconazole on ergosterol ([10]; increasing concentrations of fluconazole): decrease in the amount of ergosterol

MIC of fluconazole [4]: 16 µg/mL
SMILES: O=C(O)CCn1c2ccc(Cl)cc2c2cc(Cl)ccc21 [INF 801]
fold reduction of the concentration of live cells, + Fluconazole, 16 μg/ml [2, 12]: 48* fold
fold reduction of the concentration of live cells, + Itraconazole, 0.5 μg/ml [2, 12]: 30 fold
fold reduction of the concentration of live cells, + Ketaconazole, 0.5 μg/ml [2, 12]: 28 fold
concentration affecting growth of C. albicans without fluconazole (C. albicans [11]): exceeding 30 μg/ml
effect on growth of the yeast, compound alone (C. albicans [5]): very little effect on the growth of the yeast
colonies from plating of a milliliter of culture (C. albicans [5]): no colonies
drop in number of live cells after 24 hours, combination with fluconazole (C. albicans [5]): two orders of magnitude
drop in number of live cells after 48 hours, combination with fluconazole (C. albicans [5]; 48 hours): more than three orders of magnitude
concentration at which fungicidal activity is observed (C. albicans [3]): 1.25 µg/mL
growth within zones after a week of incubation, combination with fluconazole (C. albicans [6]): no growth
zone of inhibition, single agent (C. albicans [6]; [13]): narrow zones of inhibition
zone of inhibition, combination with fluconazole (C. albicans [6]): large zones of inhibition lacking any growth
effect in combination with fluconazole on C. kruzei [8]: strongly fungicidal
CFU/ml after 24 hours incubation [8, 14]: 20 CFU/ml
effect of compound alone on C. kruzei [8]: harmless
sterol pattern with fluconazole in the presence of INF 801 ([10]; differing concentrations of fluconazole): substituting sterols accumulate in much smaller amounts than in the control

MIC of fluconazole [4]: 32 µg/mL
solubility (Solubility limit): 80 µg/mL (≈ 268 µM)
SMILES: O=C(O)C12c3ccccc3C(c3ccccc31)c1ccccc12 [INF 802]
fold reduction of the concentration of live cells, + Fluconazole, 16 μg/ml [2, 15]: 5.5 fold
fold reduction of the concentration of live cells, + Itraconazole, 1 μg/ml [2, 15]: 5.0 fold
fold reduction of the concentration of live cells, + Ketaconazole, 1 μg/ml [2, 15]: 6.0 fold
concentration affecting growth of C. albicans without fluconazole (C. albicans [11]): > 80 µg/mL
effect on growth of the yeast, compound alone (C. albicans [5]): very little effect on the growth of the yeast
colonies from plating of a milliliter of culture (C. albicans [5]): no colonies
drop in number of live cells after 24 hours, combination with fluconazole (C. albicans [5]): two orders of magnitude
drop in number of live cells after 48 hours, combination with fluconazole (C. albicans [5]; 48 hours): more than three orders of magnitude
concentration at which fungicidal activity is observed (C. albicans [3]): 2.5 µg/mL
growth within zones after a week of incubation, combination with fluconazole (C. albicans [6]): no growth
zone of inhibition, single agent (C. albicans [6]; [13]): narrow zones of inhibition
zone of inhibition, combination with fluconazole (C. albicans [6]): large zones of inhibition lacking any growth
effect in combination with fluconazole on C. kruzei [8]: strongly fungicidal
CFU/ml after 24 hours incubation [8, 14]: 20 CFU/ml
effect of compound alone on C. kruzei [8]: harmless

SMILES: CCC(C)n1ncn(-c2ccc(N3CCN(c4ccc(OCC5COC(Cn6cncn6)(c6ccc(Cl)cc6Cl)O5)cc4)CC3)cc2)c1=O (stereo not shown) [Itraconazole]
absorption in the fasting state relative to drug taken with food ([1]; in vivo, po): 30%

SMILES: CC(=O)N1CCN(c2ccc(OCC3COC(Cn4ccnc4)(c4ccc(Cl)cc4Cl)O3)cc2)CC1 (stereo not shown) [Ketoconazole]
peak plasma concentrations ([1]; oral doses 200-800 mg): 4 to 20 µg/mL

SMILES: O=CC12c3ccccc3C(c3ccccc31)c1ccccc12 [S 060128]
fold reduction of the concentration of live cells, + Fluconazole, 16 μg/ml [2, 15]: 36 fold
fold reduction of the concentration of live cells, + Itraconazole, 1 μg/ml [2, 15]: 69 fold
fold reduction of the concentration of live cells, + Ketaconazole, 1 μg/ml [2, 15]: 380 fold
